From patent US7728155B2, “Dihydrobenzofuranyl alkanamines and methods for using same as cns agents” (Wyeth LLC, priority 2003, dated 2010)
pEC50, pKi: −log10 of the molar value. Structures can show the parent of a compound that is named as a salt.

Key:
[1] = target: T1, human 5-hydroxytryptamine-2C (h5-HT2C) receptor (Homo sapiens, UniProt P28335); assay: [125I]DOI binding affinity at h5-HT2C receptor, CHO cell membranes; conditions: [125I]DOI displacement, CHO membranes expressing h5-HT2C; read-out: 5-HT2C Affinity Ki
T1 construct: expressed in transfected cells; host or cells: CHO (Chinese Hamster Ovary) cells; membranes
T1 sequence (P28335 33-458): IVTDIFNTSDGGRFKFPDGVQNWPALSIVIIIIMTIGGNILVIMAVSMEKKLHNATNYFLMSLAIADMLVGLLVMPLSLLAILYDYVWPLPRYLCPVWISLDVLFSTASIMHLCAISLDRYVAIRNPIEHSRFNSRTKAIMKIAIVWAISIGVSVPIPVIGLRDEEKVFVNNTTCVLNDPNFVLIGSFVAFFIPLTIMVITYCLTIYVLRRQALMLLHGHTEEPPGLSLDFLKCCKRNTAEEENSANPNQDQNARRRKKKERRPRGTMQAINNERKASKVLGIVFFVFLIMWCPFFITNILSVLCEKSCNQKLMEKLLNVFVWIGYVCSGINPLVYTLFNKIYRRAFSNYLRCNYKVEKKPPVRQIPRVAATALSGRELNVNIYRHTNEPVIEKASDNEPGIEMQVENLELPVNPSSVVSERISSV

human 5-HT2C receptor = target: T2, human 5-HT2C receptor (Homo sapiens, UniProt P28335); assay: 5-HT2C receptor-stimulated calcium mobilization (FLIPR) in CHO cells; format: cell-based; conditions: for Emax: CHO, read-out: 5-HT2C Function Emax (%); for pEC50: calcium mobilization, CHO cells expressing human 5-HT2C, read-out: 5-HT2C Function EC50
T2 sequence (P28335 33-458): T1 sequence (P28335 33-458)

[2] = percentage of the response to a maximally effective concentration of 5-HT

| melting point | Structure (SMILES) | other results |
| --- | --- | --- |
| 58 to 60 °C | CNCC1Cc2c(Cl)cc3c(c2O1)CCC3 (racemic) [Example 28, (±)-1-(4-chloro-3,6,7,8-tetrahydro-2H-indeno[4,5-b]furan-2-yl)-N-methylmethanamine] | pKi [1]: 7.96 |
| > 220 °C (dec.) | NCC1Cc2ccc3c(c2O1)CCCC3 (racemic) (as salt: hydrochloride) [Example 4, (±)-1-(2,3,6,7,8,9-hexahydronaphtho[1,2-b]furan-2-yl)methanamine] | – |
| > 150 °C (dec.) | COc1cc2c(c3c1C1CCC3C1)OC(CN)C2 (single isomer, unassigned) (as salt: hydrochloride) [Example 17, (9-methoxy-4-oxatetracyclo[9.2.1.0^2,10.0^3,7]tetradeca-2,7,9-trien-5-yl)methylamine] | – |
| > 230 °C (dec.) | NCC1Cc2ccc3c(c2O1)CCC3 (racemic) (as salt: hydrochloride) [Example 1, (±)-1-(3,6,7,8-tetrahydro-2H-indeno[4,5-b]furan-2-yl)methanamine] | – |
| 224 to 226 °C | CNCC1Cc2cc(Cl)c3ccccc3c2O1 (racemic) (as salt: hydrochloride) [Example 24, (±)-1-(5-chloro-2,3-dihydronaphtho[1,2-b]furan-2-yl)-N-methylmethanamine] | – |
| 265 to 268 °C | NCC1Cc2c(Cl)cc3c(c2O1)CCC3 (single isomer, unassigned; (-)) (as salt: hydrochloride) [Example 26, (−)-1-(4-chloro-3,6,7,8-tetrahydro-2H-indeno[4,5-b]furan-2-yl)methanamine] | – |
| > 220 °C | Cc1cc2c(c3c1CCC3)OC(CN)C2 (single isomer, unassigned; (+)) (as salt: hydrochloride) [Example 8, (+)-1-(5-methyl-3,6,7,8-tetrahydro-2H-indeno[4,5-b]furan-2-yl)methanamine] | – |
| > 200 °C (dec.) | Cc1cc2c(c3c1CCC3)OC(CN)C2 (racemic) (as salt: hydrochloride) [Example 7, (±)-1-(5-methyl-3,6,7,8-tetrahydro-2H-indeno[4,5-b]furan-2-yl)methanamine] | – |
| > 225 °C | NCC1Cc2c(ccc3c2CCCC3)O1 (racemic) (as salt: hydrochloride) [Example 14, (±)-1-(1,2,6,7,8,9-hexahydronaphtho[2,1-b]furan-2-yl)methanamine] | – |
| 269 to 271 °C | NCC1Cc2cc(Cl)c3ccccc3c2O1 (racemic) (as salt: hydrochloride) [Example 23, (±)-1-(5-chloro-2,3-dihydronaphtho[1,2-b]furan-2-yl)methanamine] | – |
| 270 °C (dec.) | NCC1Cc2cc(Cl)c3c(c2O1)CCC3 (racemic) (as salt: hydrochloride) [Example 29, (±)-1-(5-chloro-3,6,7,8-tetrahydro-2H-indeno[4,5-b]furan-2-yl)methanamine] | – |
| – | NCC1Cc2cc(Cl)c3ccccc3c2O1 (racemic) [Example 23, (±)-1-(5-chloro-2,3-dihydronaphtho[1,2-b]furan-2-yl)methanamine] | pKi [1]: 8.30; Emax (human 5-HT2C receptor; [2]): 90%; pEC50 (human 5-HT2C receptor): 7.55 |
| – | Cc1cc2c(c3c1CCC3)OC(CN)C2 (single isomer, unassigned; (+)) [Example 8, (+)-1-(5-methyl-3,6,7,8-tetrahydro-2H-indeno[4,5-b]furan-2-yl)methanamine] | pKi [1]: 8.22; Emax (human 5-HT2C receptor; [2]): 100%; pEC50 (human 5-HT2C receptor): 8.08 |
| > 180 °C (dec.) | COc1cc2c(c3c1C1CCC3C1)OC(CN)C2 (single isomer, unassigned) (as salt: hydrochloride) [Example 16, (9-methoxy-4-oxatetracyclo[9.2.1.0^2,10.0^3,7]tetradeca-2,7,9-trien-5-yl)methylamine] | – |
| – | NCC1Cc2ccc3ccccc3c2O1 (single isomer, unassigned; (-)) [Example 12, (−)-1-(2,3-dihydronaphtho[1,2-b]furan-2-yl)methanamine] | pKi [1]: 7.80; pEC50 (human 5-HT2C receptor): 8.70; 5-HT2C Function Emax (%) (human 5-HT2C receptor; [2]): 90% |
| > 330 °C | NCC1Cc2cc(Cl)c3c(c2O1)CCC3 (single isomer, unassigned; (-)) (as salt: hydrobromid) [Example 30, (−)-1-(5-chloro-3,6,7,8-tetrahydro-2H-indeno[4,5-b]furan-2-yl)methanamine] | – |
| > 220 °C | COc1cc2c(c3c1C1CCC3CC1)OC(CN)C2 (single isomer, unassigned; (+)) (as salt: hydrochloride) [Example 20, (+)-1-(5-methoxy-2,3,6,7,8,9-hexahydro-6,9-ethanonaphtho[1,2-b]furan-2-yl)methanamine] | – |
| – | NCC1Cc2cc(Cl)c3c(c2O1)CCC3 (racemic) [Example 29, (±)-1-(5-chloro-3,6,7,8-tetrahydro-2H-indeno[4,5-b]furan-2-yl)methanamine] | pKi [1]: 8.40; Emax (human 5-HT2C receptor; [2]): 100%; pEC50 (human 5-HT2C receptor): 8.24 |
| > 250 °C (dec.) | NCC1Cc2ccc3ccccc3c2O1 (racemic) (as salt: hydrochloride) [Example 10, (±)-1-(2,3-dihydronaphtho[1,2-b]furan-2-yl)methanamine] | – |
| 251 to 254 °C | NCC1Cc2c(Cl)cc3c(c2O1)CCC3 (racemic) (as salt: hydrochloride) [Example 25, (±)-1-(4-chloro-3,6,7,8-tetrahydro-2H-indeno[4,5-b]furan-2-yl)methanamine] | – |
| > 210 °C | COc1cc2c(c3c1C1CCC3CC1)OC(CN)C2 (racemic) (as salt: hydrochloride) [Example 19, (±)-1-(5-methoxy-2,3,6,7,8,9-hexahydro-6,9-ethanonaphtho[1,2-b]furan-2-yl)methanamine] | – |
| > 225 °C | NCC1Cc2cc3c(cc2O1)CCCC3 (racemic) (as salt: hydrochloride) [Example 13, (±)-1-(2,3,5,6,7,8-hexahydronaphtho[2,3-b]furan-2-yl)methanamine] | – |

| Structure (SMILES) | melting point | other results |
| --- | --- | --- |
| C[C@@H](N)[C@H]1Cc2ccc3c(c2O1)CCC3 (relative stereo) (as salt: hydrochloride) [Example 22, (2R*)-1-[(2R*)-3,6,7,8-tetrahydro-2H-indeno[4,5-b]furan-2-yl]ethylamine] | > 250 °C | – |
